According to US5981555A, “Compositions, kits and methods for administration of antilipemic drugs” (Lipoprotein Technologies, Inc., priority 1997, dated 1999):
pIC50: −log10 of the molar value. “And” between values parts separate entries of the source, which are not always exact repeats. Identical values can stand only once. Like-named read-outs stand apart in the source and are kept apart here.

What was measured:
inflammation = conditions: cited from earlier work
[1] = test system: flushing induced by nicotinic acid; format: in vivo, human
Method: Two weeks later, the same subjects were administered 40 of mg aspirin for each of four days.

[2] = test system: PGD-M, the major urinary metabolite of PGD2; assay: Urinary excretion of PGD-M after nicotinic acid (Example 1, FIGS. 1, 2); format: in vivo, human
Method: (§1) Two weeks later, the same subjects were administered 40 of mg aspirin for each of four days. […] Urinary excretion of PGD-M was much lower (FIG. 2), confirming the suppressive activity of aspirin on PGD2 release. Release of PGF2 after aspirin pretreatment (40 mg) was approximately 10% of baseline (FIG. 3).

PGF2 release = assay: PG release following topical nicotinic acid with or without aspirin pretreatment (FIG. 3); format: in vivo, human; conditions: aspirin pretreatment (40 mg) (FIG. 3)
Method: as §1

[3] = test system: flushing induced by nicotinic acid; assay: Niacin flushing after bid aspirin pretreatment (Example 2); format: in vivo, human
Method: Three subjects were administered 40 mg of aspirin twice daily (i.e., bid) in the morning and evening for three days.

[4] = test system: human macrophage cell line THP-1; assay: PG release from THP-1 cells in vitro (Examples 3 and 6); format: cell-based
Text: Indomethacin was used in place of aspirin to inhibit PG production in THP-1 cells in vitro as in Example 3.

[5] = test system: flushing induced by niacin; assay: Niacin flushing after sustained release aspirin pretreatment (Example 7); format: in vivo, human
[6] = test system: flushing induced by nicotinic acid; assay: Cutaneous blood flow (FLUX) by laser Doppler, flushing severity and duration (Example 8); format: in vivo, human; conditions: mean ± S.D., n = 14
Method: (§2) Fourteen healthy male subjects completed the study. After randomization, subjects were given a placebo or 81 mg of aspirin bid for three days. The study was double-blind.
(§3) Room temperature and humidity were constant during the trial.
(§4) Flushing was measured in three ways: (1) quantitatively using laser Doppler, (2) subjectively via questionnaire, and (3) by measuring a biochemical marker of flushing, a stable metabolite of prostaglandin D2. Complete pharmacokinetic parameters in timed blood samples after oral administration were also measured in plasma and urine. Flushing, as measured by continuous and simultaneous recording of cutaneous blood flow on each side of the neck using laser Doppler techniques (Moor Instruments), provides an arbitrary representation of cutaneous blood flow defined as FLUX. Flux is expressed in arbitrary units (AU) from baseline (FLUXpeak-FLUXbaseline; see FIG. 11B). Duration of flush is the time in minutes from the beginning to the end of Flux shift in the DRTSOFT plot.

[7] = test system: flushing induced by nicotinic acid; assay: Local skin temperature change (Example 8); format: in vivo, human; conditions: mean ± S.D.; n = 14; p = 0.016 (paired t test)
Method: as §2, §3

[8] = test system: flushing induced by nicotinic acid; assay: Rating of flushing by subject (Example 8); format: in vivo, human; conditions: number of subjects; n = 14; p < 0.05 (Wilcoxon)
Method: as §2, §3, §4

[9] = test system: flushing induced by nicotinic acid; assay: Rating of flushing by investigator (Example 8); format: in vivo, human; conditions: number of subjects; n = 14; p < 0.05 (Wilcoxon)
Method: as §2, §3, §4

[10] = test system: prostaglandin synthetase (cyclooxygenase); conditions: Flower, Pharmacol. Rev. 26:33 (1974); cited from earlier work
[11] = test system: nicotinic acid-induced flush; conditions: pretreatment at 4.5 and 0.5 hr; indomethacin 25 or 50 mg/kg; aspirin 50, 100, or 200 mg/kg; cited from earlier work
[12] = test system: cutaneous flush induced by nicotinic acid; conditions: 975 mg total: 650 mg at 1 hr and 325 mg at 0.5 hr prior to nicotinic acid; cited from earlier work
[13] = test system: niacin-induced cutaneous reactions; conditions: cited from earlier work
platelet aggregation = conditions: cited from earlier work
[14] = test system: PG production in other cell types; conditions: cited from earlier work
[15] = test system: eicosanoid metabolites in urine; conditions: oral administration (FIG. 8)
Text: (§5) Langerhans cells, the macrophages of skin, may differ from other macrophages in releasing lesser amounts of eicosanoids other than PGD2.

[16] = test system: release of eicosanoids from skin; conditions: topical niacin (FIG. 7)
Text: as §5

[17] = test system: human circulating monocytes; conditions: FIG. 4
[18] = within days after initiating therapy; cited from earlier work
[19] = test system: prostaglandin F2, a metabolite of D; conditions: cited from earlier work
[20] = Physician's Desk Reference, 51st ed.
[21] = 325 mg aspirin 30 minutes prior to niacin
[22] = initial testing, out of 306 patients, over 33 months

O=C(O)Cc1ccccc1Nc1c(Cl)cccc1Cl [Diclofenac]
Minimum Anti-inflammatory Dosage (inflammation; Goodman and Gilman, 9th ed.): 100 mg

CCc1cccc2c3c([nH]c12)C(CC)(CC(=O)O)OCC3 (stereo not shown) [Etodolac]
Minimum Anti-inflammatory Dosage (inflammation; Goodman and Gilman, 9th ed.): 200 mg

CC(C(=O)O)c1cccc(Oc2ccccc2)c1 (stereo not shown) [Fenoprofen]
Minimum Anti-inflammatory Dosage (inflammation; Goodman and Gilman, 9th ed.): 300 mg

CC(C(=O)O)c1ccc(-c2ccccc2)c(F)c1 (stereo not shown) [Flurbiprofen]
Minimum Anti-inflammatory Dosage (inflammation; Goodman and Gilman, 9th ed.): 50 mg

CC(C(=O)O)c1cccc(C(=O)c2ccccc2)c1 (stereo not shown) [Ketoprofen]
Minimum Anti-inflammatory Dosage (inflammation; Goodman and Gilman, 9th ed.): 150 mg

O=C(c1ccccc1)c1ccc2n1CCC2C(=O)O (stereo not shown) [Ketorolac]
Minimum Anti-inflammatory Dosage (inflammation; Goodman and Gilman, 9th ed.): 5 mg

COc1ccc2cc(CCC(C)=O)ccc2c1 [Nabumetone]
Minimum Anti-inflammatory Dosage (inflammation; [20]): 500 mg

O=C(O)CCc1nc(-c2ccccc2)c(-c2ccccc2)o1 [Oxaprozin]
Minimum Anti-inflammatory Dosage (inflammation; Goodman and Gilman, 9th ed.): 600 mg

CN1C(C(=O)Nc2ccccn2)=C(O)c2ccccc2S1(=O)=O [Piroxicam]
Minimum Anti-inflammatory Dosage (inflammation; [20]): 10 mg

CC1=C(CC(=O)O)c2cc(F)ccc2/C1=C\c1ccc([S+](C)[O-])cc1 (stereo not shown) [Sulindac]
Minimum Anti-inflammatory Dosage (inflammation; Goodman and Gilman, 9th ed.): 150 mg

Cc1ccc(C(=O)c2ccc(CC(=O)O)n2C)cc1 [Tolmetin]
Minimum Anti-inflammatory Dosage (inflammation; [20]): 400 mg

CC(=O)Oc1ccccc1C(=O)O [aspirin]
subjective sensation ([1]; 40 mg aspirin 1 hour prior to 500 mg immediate release nicotinic acid, all three subjects): subjective sensation of cutaneous warmth | flushing ([1]; 40 mg aspirin 1 hour prior to single 500 mg immediate release nicotinic acid, all three subjects): severe flushing | flushing after multi-day aspirin pretreatment ([1]; 40 mg aspirin each of four days, 500 mg nicotinic acid on fourth day 1 hour after aspirin, two of three subjects): virtually no flushing | flushing after multi-day aspirin pretreatment, third subject ([1]; 40 mg aspirin each of four days, 500 mg nicotinic acid on fourth day, third subject): some flushing, but less than that encountered previously | urinary excretion of PGD-M after multi-day aspirin ([2]; 40 mg aspirin each of four days, 500 mg nicotinic acid on fourth day (FIG. 2)): much lower | release of PGF2 after aspirin pretreatment (PGF2 release): approximately 10 % of baseline | flushing, bid aspirin pretreatment ([3]; 40 mg aspirin bid three days, fourth day 500 mg immediate release nicotinic acid with 40 mg aspirin, three subjects): None of the subjects experienced any appreciable flushing | IC50 ([4]; Homo sapiens, THP-1, read-out: IC50, inhibition of niacin-stimulated release of PG from THP-1 cells): ~380 nM and ~0.07 µg/mL | flushing, aspirin 1/2 hour before niacin, third subject ([5]; 325 mg aspirin 1/2 hour before 500 mg immediate release niacin, third subject): severe flushing | flushing, aspirin 1/2 hour before niacin ([5]; 325 mg aspirin 1/2 hour before 500 mg immediate release niacin, two subjects): flushing, though slightly diminished | side effects from niacin versus sustained release aspirin predosing ([5]; 325 mg aspirin 1/2 hour before niacin, compared with SR aspirin for 6 hours, three subjects): significantly greater side effects | AUCflux ([6]; aspirin 81 mg bid three days then 500 mg nicotinic acid + 81 mg aspirin vs placebo then niacin, p = 0.0001 (paired t test)): 3022.5 + 2772 | Flushing duration ([6]; p = 0.002 (paired t test)): 15.8 ± 16 min | Local T° change [7]: 0.61 ± 0.56 °C | Rating of Flushing by Subject: Mild [8]: 4 | Rating of Flushing by Subject: Moderate [8]: 1 | Rating of Flushing by Subject: None [8]: 6 | Rating of Flushing by Subject: Severe [8]: 3 | Rating of Flushing by Subject: Very severe [8]: 0 | Rating of Flushing by Investigator: Mild [9]: 2 | Rating of Flushing by Investigator: Moderate [9]: 3 | Rating of Flushing by Investigator: None [9]: 8 | Rating of Flushing by Investigator: Severe [9]: 1 | Rating of Flushing by Investigator: Very severe [9]: 0 | inhibition of synthesis of PGs such as E2 and F2, concentrations [10]: high micromolar | inhibition of nicotinic acid-induced flush (increase in ear temperature) [11]: inhibited | reduction of cutaneous flush [12]: significantly reduce cutaneous flush | niacin-associated flushing, warmth, itching and tingling, 80 mg aspirin ([13]; 80 mg aspirin 30 minutes prior to niacin, compared to placebo): even more aggravated flushing, warmth, itching and tingling | niacin-associated warmth, flushing, itching and tingling, 325 mg aspirin [13, 21]: decrease the warmth and flushing associated with niacin, but not the itching and tingling | patients with flushing and warmth [13, 21]: at least 72 % of the patients | patients with complete inhibition of platelet aggregation (platelet aggregation; [22]): 288 patients | patients with partial inhibition of platelet aggregation (platelet aggregation; [22]): 78 patients | patients with initial partial inhibition achieving complete inhibition (platelet aggregation; of 52 patients, dosage escalation or fluctuation of response): 35 | patients reverted to partial inhibition on further testing (platelet aggregation; of the 35): 8 | patients converted from complete to partial inhibition (platelet aggregation; repeat testing, without change in aspirin dosage): about 33% | Minimum Anti-inflammatory Dosage (inflammation; [20]): 325 mg

O=C(O)c1ccccc1Nc1cccc(C(F)(F)F)c1 [flufenamic acid]
inhibition of synthesis of PGs such as E2 and F2, concentrations [10]: high micromolar

CC(C)Cc1ccc(C(C)C(=O)O)cc1 (stereo not shown) [ibuprofen]
inhibition of synthesis of PGs such as E2 and F2, concentrations [10]: high micromolar

COc1ccc2c(c1)c(CC(=O)O)c(C)n2C(=O)c1ccc(Cl)cc1 [indomethacin]
pIC50 ([4]; Homo sapiens, THP-1, read-out: IC50, PG production in THP-1 cells): ~9.00 | sensitivity of THP-1 cells relative to other cells ([4]; THP-1 versus other cells): approximately 1000 times | inhibitory concentrations on PG production in other cell types [14]: micromolar range | inhibition of synthesis of PGs such as E2 and F2, concentrations [10]: high micromolar | inhibition of nicotinic acid-induced flush (increase in ear temperature) [11]: inhibited | Minimum Anti-inflammatory Dosage (inflammation; [20]): 25 mg

COc1ccc2cc([C@H](C)C(=O)O)ccc2c1 [naproxen]
inhibition of synthesis of PGs such as E2 and F2, concentrations [10]: high micromolar | Minimum Anti-inflammatory Dosage (inflammation; [20]): 250 mg

O=C(O)c1cccnc1 [niacin, nicotinic acid]
excretion of PGD-M in urine ([2]; 500 mg nicotinic acid 1 hour after single 40 mg aspirin, over 7 hours (FIG. 1)): significant amounts | flushing, nicotinic acid without aspirin ([3]; single 500 mg dose without aspirin, all three subjects): severe flushing | in vitro release of PGs from THP-1 ([4]; FIG. 4): stimulate in vitro release of PGs | metabolites of PGD2 in urine [15]: increased amounts | metabolites of leukotriene in urine [15]: increased amounts | metabolites of thromboxane in urine [15]: increased amounts | release of 9a, 11b-PGF2 [16]: increased the release | release of thromboxane (TxB2) [16]: did not release | in vitro release of PGs from human circulating monocytes [17]: stimulate in vitro release of PGs | patients who cease taking nicotinic acid [18]: 30-40 % of patients | level of prostaglandin F2 on repeated administration ([19]; after 6 days of continuous, twice daily administration): decreases markedly | concentration of prostaglandin F2 in blood coming from the skin ([19]; following administration of niacin): dramatic rise

CCCCC1C(=O)N(c2ccccc2)N(c2ccccc2)C1=O [phenylbutazone]
inhibition of synthesis of PGs such as E2 and F2, concentrations [10]: high micromolar
